Values of other authors, collected in patent publication US6503496B2, “Non-alcoholic and hypoallergenic face cream for the treatment of razor bumps” (priority 2000, dated 2003).

Experiments:
[1] = not given; remark: listed apart in the source

Compound	solubility in alkaline solution (alkaline solution)	solubility in water (water)	toxicity on the skin [1]
Aluminium Polyhydrate	soluble	Practically insoluble	–
O=C([O-])CN(CCN(CC(=O)[O-])CC(=O)O)CC(=O)[O-].[Na+].[Na+].[Na+] [Trisodium EDTA]	–	–	No known toxicity
